93 molecules from ChEMBL document CHEMBL3507680, “University of Dundee, Gates Library screen for HepG2 cell viability” can be followed below.

The nature of this series: Human HepG2 cell viability assay in 384 well format. The series is classed as toxicity, cell-based. As to conditions: HepG2 cells, read-out: Inhibition. Also on record: dose 125 nL, time 70.5 hour; concentration not given beside the values.
Take `COc1ccc(C(=O)NS(=O)(=O)c2cncc(Br)c2)cc1OC`: the cytotoxicity at 70.5 h was -3.31%. Turning to `CCC(O)CN1CCN(C(=O)c2ccnc(N(C)C)c2)CC1` (stereo not drawn), the cytotoxicity at 70.5 h was -11.3%. Regarding `Cn1cccc1C(=O)N1CCC2(CC1)CN(c1ccccc1)C(=O)CO2`, the cytotoxicity at 70.5 h is -14.1%. As to `Cn1cc(N2CC3(CCN(C(=O)c4cccn4C)CC3)OCC2=O)cn1`, the cytotoxicity at 70.5 h was -12.8%. Regarding `COCCC1COC2(CCN(C(=O)c3ccccc3)CC2)C1` (stereo not drawn), the cytotoxicity at 70.5 h was -7.59%. Turning to `O=C(Cc1ccsc1)N1CCc2ncc(Cn3cccn3)n2CC1`, the cytotoxicity at 70.5 h is -13.8%.

On to `O=C(c1cccs1)N1CCc2ncc(Cn3cncn3)n2CC1`, for which the cytotoxicity at 70.5 h was -13.5%. Then `Cc1cc(C(=O)N2CCC[C@]3(C[C@@H](OCC4CC4)CO3)C2)no1`, with -11.6%. Consider `Cc1cc(C(=O)N2CCC[C@]3(C[C@H](OCC4CC4)CO3)C2)no1`, for which the cytotoxicity at 70.5 h is -0.0994%.

Turning to `Cc1nc(NCC2CC2)nc2c1COCC21CCN(CC(=O)N(C)C)C1` (stereo not drawn), the cytotoxicity at 70.5 h is -14.8%. To `Cc1cccc(C(=O)N2CCn3cc(CN4CCCCC4)nc3C2)n1` belongs -10.3%; to `O=C(c1cocn1)N1CCC[C@]2(C[C@@H](OCC3CC3)CO2)C1`, -7.29%. Then `C[C@H]1CN(C(=O)N(C)C)C[C@@]12CCN(c1ccsc1)C2=O`, with -8.12%. For the molecule `CN(Cc1ccncc1)C1CC2(CCN(Cc3ccccn3)CC2)C1`, the cytotoxicity at 70.5 h was -6.76%. For `CCOCC(=O)N1CC[C@@H]2O[C@@H](C)C[C@H]2C1`, the cytotoxicity at 70.5 h was -11.3%. To `O=C(c1cccs1)N1CCC2(CC1)CN(c1cncnc1)C(=O)CO2` belongs -12.3%; to `CN(C)[C@@H]1CCN(C(=O)c2ccccn2)[C@H]1Cc1ccncc1`, -13%; to `CCOCC(=O)N1CC[C@H]2O[C@@H](C)C[C@H]2C1`, -12.8%.

Consider `COc1cccc(C(=O)N2CCOC3(CCCN(C(C)=O)C3)C2)c1` (stereo not drawn), for which the cytotoxicity at 70.5 h is -16.1%. Then `COCCC1COC2(CCN(C(=O)c3ccsc3)CC2)C1` (stereo not drawn), with -12.7%.

`COc1ccccc1C(=O)N1CCOC2(CCCN(C(C)=O)C2)C1` (stereo not drawn): the cytotoxicity at 70.5 h was -12.3%. Then `CCO[C@@H]1CCN(C(=O)c2cnc(C)cn2)[C@@H]1Cc1cnn(C)c1`, with -11.6%; and `COCCO[C@H]1CCN(C(=O)c2ccsc2)[C@H]1Cc1ccncc1`, with -9.1%; and `Cn1cc(C[C@H]2[C@@H](O)CCN2C(=O)c2ccc[nH]2)cn1`, with -10.8%. As to `COCCO[C@H]1CCN(C(=O)c2cnoc2C)[C@H]1Cc1cnn(C)c1`, the cytotoxicity at 70.5 h was -5.22%. To `Cc1ncnc2c1CCN(C(=O)c1cccn1C)CC2` belongs -5.38%; to `Cn1cccc1C(=O)N1CCc2ncnc(N3CCOCC3)c2CC1`, -9.14%; to `Cc1cc(CN2CC[C@H]3C(=O)N(c4cccnc4)CCO[C@H]3C2)no1`, -4.94%. To `COCC1CN(C(=O)Cc2ccsc2)Cc2c1cnn2C` (stereo not drawn) belongs 25.8%. Then `O=C(c1ccoc1)N1CCn2cnc(COCC3CC3)c2C1`, with 4.58%; and `CNC(=O)[C@@]12CCO[C@@H]1CCN(S(=O)(=O)c1cc(C)cc(C)c1)C2`, with -13.2%.

On to `O=C(c1cccs1)N1CC[C@H]2[C@@H]1CCC(=O)N2c1cccnc1`, for which the cytotoxicity at 70.5 h was -11.5%. Turning to `Cn1cc(C[C@H]2[C@H](N3CCOCC3)CCN2C(=O)c2ccoc2)cn1`, the cytotoxicity at 70.5 h is -16.3%. Then `O=C(c1cnccn1)N1CCc2ncnc(C3CCOC3)c2CC1` (stereo not drawn), with -9.35%; and `O=C(c1ccco1)N1CC[C@@H](N2CCOCC2)[C@@H]1Cc1ccccc1`, with -7.17%; and `CNC(=O)[C@@]12CCO[C@@H]1CCN(S(=O)(=O)c1ccccc1C)C2`, with -10.5%. Regarding `CNC(=O)[C@@]12CCO[C@@H]1CCN(S(=O)(=O)c1ccccc1)C2`, the cytotoxicity at 70.5 h is -6.28%. Turning to `Cn1cc(CN2CCCC3(CCN(c4cccnc4)C3=O)C2)cn1` (stereo not drawn), the cytotoxicity at 70.5 h amounted to 20%. To `CCOCC1CN(C(=O)c2ccco2)Cc2cnn(CC)c21` (stereo not drawn) belongs 12.3%; to `Cc1noc([C@@H]2CCO[C@@H]3CCN(Cc4nccs4)C[C@@H]32)n1`, 9.78%; to `CCOCC1CN(C(=O)N2CCCC2)Cc2cnn(CC)c21` (stereo not drawn), -4.21%. For the molecule `Cc1nnc(SCC(=O)N2CCc3[nH]nc(C4CCC4)c3C2)o1`, the cytotoxicity at 70.5 h is 8.24%. Turning to `COCCN(C)C(C(=O)O)c1ccc(F)c(C)c1` (stereo not drawn), the cytotoxicity at 70.5 h was -2.89%. With `CCC(=O)N1CCCC(C(=O)NCc2noc(Cc3ccccc3)n2)C1` (stereo not drawn), the cytotoxicity at 70.5 h is -12.1%. Then `CC(C)N(CCO)C(=O)c1cc(COc2ccc3c(c2)CCCC3)on1`, with -10.1%.

As for `CCCNc1ncc(C2CC(=O)NCc3nc4ccccn4c32)cn1` (stereo not drawn), the cytotoxicity at 70.5 h was -8.46%.

`Cc1cc(C)cc(C(C(=O)O)N(C)CCCN2CCOCC2)c1` (stereo not drawn): the cytotoxicity at 70.5 h amounted to 8.9%. To `CC(NC(=O)C1CCN(C(=O)C2CC2)CC1)c1nncn1C(C)C` (stereo not drawn) belongs -4.92%. Take `CC(C)(C)c1cc(CN2C[C@H]3CC[C@@H]2CN(Cc2ccccn2)C3)n[nH]1`: the cytotoxicity at 70.5 h was -5.84%. Then `CCc1ccc2nc(C)cc(C(=O)N[C@@H]3CNC[C@H]3O)c2c1`, with 25.1%; and `CCn1cc(CN2CCCC(c3[nH]ncc3-c3ccc(C)cc3)C2)cn1` (stereo not drawn), with -16.8%. `O=C(c1cc(-c2ccco2)nc2c(Cl)cccc12)N1CCS(=O)(=O)CC1`: the cytotoxicity at 70.5 h is -11.9%. In the case of `CNC(=O)CNCC1(O)CCCN(Cc2ccc(F)c(F)c2)C1=O` (stereo not drawn), the cytotoxicity at 70.5 h is 29%. In the case of `CC(C)CCN1CC2(CCN(C(=O)C3(C)CC3)CC2)OC1=O`, the cytotoxicity at 70.5 h is -0.562%. With `O=C(C1COc2ccccc2O1)N1Cc2cnn(CCO)c2C1` (stereo not drawn), the cytotoxicity at 70.5 h was -3.6%. `CS(=O)(=O)CC1CCCN(c2ncnc3c2Cc2ccccc2OC3)C1` (stereo not drawn): the cytotoxicity at 70.5 h was -9.52%. On to `CC(C)Cn1cncc1CNC1CCSC1` (stereo not drawn), for which the cytotoxicity at 70.5 h amounted to 21.1%.

Take `Cc1cccc(CN2CCN(C(=O)c3cc(Cl)c[nH]c3=O)CC2)c1`: the cytotoxicity at 70.5 h was -4.23%. To `Cc1ccc2nc(C)c(C)c(C(=O)N3CCN(c4nccs4)CC3)c2c1` belongs -7.96%; to `N[C@H]1CC[C@@H](Nc2nccc(CCC(F)(F)F)n2)CC1`, -2.71%. To `CCc1nnc(CN2CCC3(CCC(=O)N(C4CCCC4)C3)CC2)o1` belongs -7.05%. Regarding `Cc1ccc2c(c1)c(CNC(=O)C1CCN(C(=O)C3CC3)CC1)nn2C`, the cytotoxicity at 70.5 h was -3.75%. To `CCn1cc(-c2c(C)c(C3CCOC(C)(C)C3)nc(N)c2C#N)cn1` (stereo not drawn) belongs 9.87%; to `O=C(c1ccc[nH]1)N1CCn2cc(Cn3cccn3)nc2C1`, -8.4%; to `Cc1cccc(C(=O)N2CCC[C@]3(C[C@@H](OCC4CC4)CO3)C2)n1`, -13.9%.

`O=C(CC1CC1)N1CCc2ncc(Cn3cncn3)n2CC1`: the cytotoxicity at 70.5 h was -14.1%. Then `COCCC1COC2(CCN(C(=O)c3cccnc3)CC2)C1` (stereo not drawn), with -13%; and `CC(C)CCN1C2(CCN(Cc3nccs3)C2)c2ccccc2S1(=O)=O` (stereo not drawn), with -11.4%.

Consider `COCCO[C@H]1CCN(C(=O)c2ccno2)[C@H]1Cc1ccncc1`, for which the cytotoxicity at 70.5 h is -11.9%.

`Cc1ccccc1C(=O)N1Cc2c(Cn3ccnc3)nn(C)c2C1`: the cytotoxicity at 70.5 h was -9.48%. To `O=C(C1CCOC1)N1CCC2(CC1)CN(c1ncccn1)CCO2` (stereo not drawn) belongs 22.2%. To `Cc1cc(CN2CC[C@H]3C(=O)N(c4ccsc4)CCO[C@H]3C2)no1` belongs -9.15%. To `c1cc(CN2CCCn3cnc(COCC4CC4)c3C2)co1` belongs -8.86%.

As for `COc1cccc(N2CC3(CCN(Cc4nccn4C)C3)CC2=O)c1` (stereo not drawn), the cytotoxicity at 70.5 h was -16.5%. For `CCN(CC)c1ncnc2c1CCN(CC1CCOCC1)CC2`, the cytotoxicity at 70.5 h was -16.3%. As for `O=C(C1CC=CC1)N1C[C@@H]2CN(Cc3ccsc3)CCO[C@@H]2C1`, the cytotoxicity at 70.5 h was -15.4%. To `CN(C)[C@@H]1CCN(C(=O)c2ccco2)[C@H]1Cc1cnn(C)c1` belongs -12.7%; to `O=C(c1ccncc1)N1CCc2ncnc(C3CC3)c2CC1`, -14.3%; to `Cn1cc(N2CC3(CCN(Cc4nccn4C)C3)CC2=O)cn1` (stereo not drawn), -12.4%.

Take `CN(C)c1ncnc2c1CCN(CC1CCOCC1)CC2`: the cytotoxicity at 70.5 h was -15%. Then `O=C(CCc1ccccc1)N1C[C@@H]2CN(Cc3ccoc3)CCO[C@@H]2C1`, with -11.8%; and `O=S1(=O)c2ccccc2C2(CCN(Cc3cccnc3)C2)N1CC1CC1` (stereo not drawn), with -11.1%.

As for `CN(Cc1ccco1)[C@@H]1CN(Cc2cnn(C)c2)[C@@H]2CCCO[C@H]12`, the cytotoxicity at 70.5 h was -12%.

Consider `CN(Cc1ccco1)[C@@H]1CN(CC2CCOCC2)[C@@H]2CCCO[C@H]12`, for which the cytotoxicity at 70.5 h was -11.5%. To `O=C(c1ccncc1)N1CCCn2c(CN3CCCC3)nnc2C1` belongs -9.38%; to `Cc1ccc(N2CCO[C@H]3CN(Cc4cc(C)on4)CC[C@H]3C2=O)cn1`, -9.06%; to `COCCN1CCN(Cc2c(C)noc2C)Cc2cccnc21`, -4.72%.

Turning to `O=C(NCc1cccnc1)[C@@H]1C[C@H]2[C@H](CCN2c2ncccn2)O1`, the cytotoxicity at 70.5 h was -3%. With `O=C(NCc1cccnc1)[C@@H]1C[C@H]2[C@H](CCN2c2ncc(F)cn2)O1`, the cytotoxicity at 70.5 h is -4.83%. To `O=C(NCc1cccnc1)[C@@H]1C[C@@H]2CCN(c3ncc(F)cn3)C[C@@H]2O1` belongs -12.2%. Regarding `O=C1CCC2(CCCN(Cc3nccs3)C2)N1CC1CC1` (stereo not drawn), the cytotoxicity at 70.5 h was found to be 10.7%.

With `O=C(NCc1cccnc1)[C@@H]1CC[C@@H]2[C@@H](CCN2c2ncccn2)O1`, the cytotoxicity at 70.5 h stood at 15.1%. Then `Cc1ccc(N2CCO[C@H]3CN(Cc4cccs4)C[C@H]32)nn1`, with 8.57%.
